In assay [1] the test system is EBV. Description: Detection of Epstein-Barr Nuclear Antigen (EBNA) in EBV-infected PBMC (ACIF test). Format: cell-based, human. Conditions: 100 nM analog, PBMC, six days, EBNA by ACIF. The procedure: After ten days of culture, cells were harvested for determination of the presence of Epstein-Barr Nuclear Antigen (EBNA), a consequence of EBV infection. Preparation of cell smears, fixation and detection of EBNA by the anti-complement immunofluorescence (ACIF) test were carried out as described by Reedman B. M. and Klein G. (Int. J. Cancer, 1973, 11:499). Smears were prepared by spreading 50 μl of a concentrated suspension of washed cells (2×10^6/ml) on clean slides, air dried and fixed in cold acetone (−20° C.) during 10 minutes. Human serum (50 μl) from EBV seropositive donor was used as a source of complement. Slides were incubated at room temperature in a humid chamber during 45 minutes. Slides were then washed three times in phosphate buffer saline (PBS) and stained with 50 μl of fluorescein-5-isothiocyanate (FITC “Isomer I”)-conjugated goat IgG fraction anti-human complement C3 (Cappel Research Products, Durham, N.C.) during 60 minutes at room temperature in a humid chamber. Slides were washed in PBS (3 times), mounted in PBS:glycerol 1:1 and examined. Raji and U937 cells were used as positive and negative controls, respectively. The percentage of EBNA-positive cells was decreased by more than 55% with 30 nM LTB4, and by more than 70% with 100 nM LTB4 (FIG. 2). The results illustrated in FIG. 2 are representative of six (6) other experiments.
(§1) PBMC were infected with EBV and HSV-1 and treated or not with 100 nM of analogs of LTB4 such as 20-OH-LTB4, LTA3 methyl ester, 12(R)-HETE and 5(S), 15(S)-diHETE. After six days of culture, the presence of EBNA antigen (a consequence of EBV infection) was evaluated by the ACIF test, as described in Example I. Similarly, the presence of HSV-1 antigen in PBMC was evaluated by immunofluorescence using an antiserum obtained from a chronically infected donor as described above in section entitled “Detection of Specific HSV-1 Antigen”. […] The results illustrated in Table 1 are representative of three other experiments.

The subject of another assay is HSV-1 (strain McIntyre). In words: Detection of specific HSV-1 antigen in HSV-1-infected PBMC (immunofluorescence). Conditions: 100 nM analog, six days, antiserum immunofluorescence. Format: cell-based, human. The protocol:
Synthesis of the viral antigen was inhibited by 60% in the presence of 100 nM LTB4 (FIG. 4). The results illustrated in FIG. 4 are representative of five (5) other experiments.
as §1

The test system of assay [2] is EBV. Conditions: in vitro, read-out: IC50, viral replication; cited from earlier work.
For another assay, the system named is HSV. To be noted: in vitro, read-out: IC50, viral replication; cited from earlier work.

The text below walks through data of patent US7473708B2, “Agents with leukotriene B4-like antiviral (enveloped RNA) activities” (priority 1996, dated 2009).

The term IC50 denotes the point on the concentration scale where inhibition reaches its midpoint.

As to `CCCCC/C=C\C[C@@H](O)/C=C/C=C\C/C=C\CCCC(=O)O` [12(R)-HETE, 12(R)-hydroxy-5,8,10,14(Z,Z,E,Z)-eicosatetraenoic acid], the “EBV infection, percentage of inhibition compared to infected PBMC cultured in the absence of analogs” value in the assay on EBV [1] is 65%. Besides, in the assay on HSV-1 (strain McIntyre), the “HSV-1 infection, percentage of inhibition compared to infected PBMC cultured in the absence of analogs” value amounted to 70%. For the compound `CCCCC[C@H](O)/C=C/C=C\C/C=C\C=C\[C@@H](O)CCCC(=O)O` [5(S),15(S)-diHETE, 5(S),15(S)-dihydroxy-6,8,11,13-(E,Z,Z,E)-eicosatetrae-noic acid], the “EBV infection, percentage of inhibition compared to infected PBMC cultured in the absence of analogs” value in the assay on EBV [1] was 50%. Regarding `O=C(O)CCC[C@H](O)\C=C/C=C/C=C/[C@H](O)C/C=C\CCCCCO` [20-OH-LTB4, 20-hydroxy-LTB4], the “HSV-1 infection, percentage of inhibition compared to infected PBMC cultured in the absence of analogs” value with HSV-1 (strain McIntyre) is 74%. In the case of `Nc1nc(O)c2ncn(COC(CO)CO)c2n1` [ganciclovir], the IC50 with EBV [2] was 1000 nM; with HSV, 2400 nM. `CCCCCCCC\C=C/C=C/C=C/[C@@H]1O[C@H]1CCCC(=O)OC` [LTA3 methyl ester, 14,15-dihydro-LTA4 methyl ester]: in the assay on EBV [1], the “EBV infection, percentage of inhibition compared to infected PBMC cultured in the absence of analogs” value was 65%. In addition, in the assay on HSV-1 (strain McIntyre), the “HSV-1 infection, percentage of inhibition compared to infected PBMC cultured in the absence of analogs” value was found to be 60%.
